Reference: ChEMBL document CHEMBL5579809, “Exploration of bromodomain ligand-linker conjugation sites for efficient CBP/p300 heterobifunctional degrader activity” (Bioorg Med Chem Lett, 2024)
Activity calls are given as the source filed them. The rule behind the calls is not given here.

Experiments:
[1] = target: T1, Protein cereblon/Histone acetyltransferase p300 (Homo sapiens) (UniProt Q09472+Q96SW2); experiment: Binding affinity to recombinant CRBN/p300 bromodomain (unknown origin) assessed as ternary complex formation at 10 to 100 nM by Alphascreen-based proximity assay; type: protein assay; settings: dose 10-100 nM
T1 sequence (Q09472 2-2414 limits assumed): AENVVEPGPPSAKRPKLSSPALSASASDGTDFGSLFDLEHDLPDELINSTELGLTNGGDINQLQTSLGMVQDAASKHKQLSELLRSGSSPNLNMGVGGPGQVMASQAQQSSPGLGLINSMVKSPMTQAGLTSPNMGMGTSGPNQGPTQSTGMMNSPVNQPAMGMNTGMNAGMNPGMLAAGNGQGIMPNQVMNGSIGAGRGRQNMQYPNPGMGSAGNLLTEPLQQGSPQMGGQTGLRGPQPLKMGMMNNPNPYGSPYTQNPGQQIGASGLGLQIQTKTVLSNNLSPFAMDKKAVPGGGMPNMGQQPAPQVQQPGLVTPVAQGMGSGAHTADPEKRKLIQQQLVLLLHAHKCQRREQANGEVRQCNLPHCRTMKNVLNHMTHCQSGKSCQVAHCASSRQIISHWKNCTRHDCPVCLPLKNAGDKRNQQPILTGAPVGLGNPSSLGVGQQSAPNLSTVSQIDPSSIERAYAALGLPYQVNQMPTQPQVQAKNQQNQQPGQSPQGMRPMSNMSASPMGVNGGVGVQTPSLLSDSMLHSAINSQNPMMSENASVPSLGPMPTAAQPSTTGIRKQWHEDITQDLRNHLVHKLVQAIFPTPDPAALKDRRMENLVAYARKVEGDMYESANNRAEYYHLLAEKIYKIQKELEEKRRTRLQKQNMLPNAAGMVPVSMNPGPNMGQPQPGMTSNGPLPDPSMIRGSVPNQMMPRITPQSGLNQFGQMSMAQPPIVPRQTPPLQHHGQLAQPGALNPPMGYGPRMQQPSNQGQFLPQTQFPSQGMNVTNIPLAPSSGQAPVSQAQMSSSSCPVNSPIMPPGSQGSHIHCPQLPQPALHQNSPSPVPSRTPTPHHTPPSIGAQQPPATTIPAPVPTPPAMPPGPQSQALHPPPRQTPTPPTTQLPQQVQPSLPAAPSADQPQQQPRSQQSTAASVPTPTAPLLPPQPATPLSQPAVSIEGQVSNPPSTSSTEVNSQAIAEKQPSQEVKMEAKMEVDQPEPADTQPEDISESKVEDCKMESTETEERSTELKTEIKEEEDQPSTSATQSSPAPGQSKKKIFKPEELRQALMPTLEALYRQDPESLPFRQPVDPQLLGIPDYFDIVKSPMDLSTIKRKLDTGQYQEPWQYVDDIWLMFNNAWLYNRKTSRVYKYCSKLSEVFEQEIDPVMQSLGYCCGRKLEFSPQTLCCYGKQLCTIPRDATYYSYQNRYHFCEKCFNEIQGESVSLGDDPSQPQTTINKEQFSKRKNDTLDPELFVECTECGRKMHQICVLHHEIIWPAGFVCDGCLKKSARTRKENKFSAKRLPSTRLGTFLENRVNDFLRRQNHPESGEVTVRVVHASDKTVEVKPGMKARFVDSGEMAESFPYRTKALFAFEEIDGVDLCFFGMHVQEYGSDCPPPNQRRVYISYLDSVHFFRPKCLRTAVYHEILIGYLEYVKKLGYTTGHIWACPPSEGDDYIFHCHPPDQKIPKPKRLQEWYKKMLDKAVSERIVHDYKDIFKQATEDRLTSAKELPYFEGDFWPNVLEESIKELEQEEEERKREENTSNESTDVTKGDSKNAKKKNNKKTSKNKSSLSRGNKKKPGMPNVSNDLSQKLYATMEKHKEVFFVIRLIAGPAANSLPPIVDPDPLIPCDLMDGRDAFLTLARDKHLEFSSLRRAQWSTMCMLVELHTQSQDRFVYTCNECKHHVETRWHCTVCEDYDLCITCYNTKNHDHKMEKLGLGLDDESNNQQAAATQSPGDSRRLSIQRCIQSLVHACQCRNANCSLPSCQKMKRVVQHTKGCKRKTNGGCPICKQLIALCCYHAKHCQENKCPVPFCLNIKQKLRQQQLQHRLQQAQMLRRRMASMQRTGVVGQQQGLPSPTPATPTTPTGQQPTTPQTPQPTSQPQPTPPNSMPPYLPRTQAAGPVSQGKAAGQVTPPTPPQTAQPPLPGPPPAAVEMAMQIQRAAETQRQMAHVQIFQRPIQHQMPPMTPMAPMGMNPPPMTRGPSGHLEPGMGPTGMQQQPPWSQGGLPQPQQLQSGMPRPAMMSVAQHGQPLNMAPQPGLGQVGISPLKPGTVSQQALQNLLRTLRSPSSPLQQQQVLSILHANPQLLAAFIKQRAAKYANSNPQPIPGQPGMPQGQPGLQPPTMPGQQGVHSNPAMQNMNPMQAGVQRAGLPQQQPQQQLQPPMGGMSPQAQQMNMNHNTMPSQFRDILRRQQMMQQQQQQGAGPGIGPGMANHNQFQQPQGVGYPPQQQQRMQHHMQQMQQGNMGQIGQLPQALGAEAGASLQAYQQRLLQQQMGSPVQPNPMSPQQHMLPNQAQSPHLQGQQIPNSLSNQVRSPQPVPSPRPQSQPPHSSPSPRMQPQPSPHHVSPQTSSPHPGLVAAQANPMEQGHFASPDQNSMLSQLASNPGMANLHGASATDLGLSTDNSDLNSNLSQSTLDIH
T1 sequence (Q96SW2 whole entry partner): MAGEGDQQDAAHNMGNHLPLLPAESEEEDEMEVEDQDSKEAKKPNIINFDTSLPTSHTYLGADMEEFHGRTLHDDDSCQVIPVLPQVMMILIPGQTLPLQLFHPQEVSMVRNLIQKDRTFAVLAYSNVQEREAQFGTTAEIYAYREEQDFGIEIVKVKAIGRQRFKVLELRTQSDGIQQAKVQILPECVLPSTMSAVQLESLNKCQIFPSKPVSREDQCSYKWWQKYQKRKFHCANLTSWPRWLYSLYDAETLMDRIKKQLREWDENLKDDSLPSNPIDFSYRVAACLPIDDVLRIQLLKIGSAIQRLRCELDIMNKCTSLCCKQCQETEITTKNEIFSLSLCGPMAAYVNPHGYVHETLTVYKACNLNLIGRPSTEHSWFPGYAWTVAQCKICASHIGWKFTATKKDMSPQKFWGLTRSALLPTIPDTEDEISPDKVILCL

[2] = target: T2, Protein cereblon/CREB-binding protein (Homo sapiens) (UniProt Q92793+Q96SW2); experiment: PROTAC activity at CRBN/HiBiT-tagged CBP in human HAP1 cells assessed as total cumulative degradation by measuring AUC at 0.01 nM measured over 24 hrs by luminescence based analysis; type: cell-based
[3] = target: T1, Protein cereblon/Histone acetyltransferase p300 (Homo sapiens); experiment: PROTAC activity at CRBN/HiBiT-tagged p300 in human HAP1 cells assessed as total cumulative degradation by measuring AUC at 0.1 nM measured over 24 hrs by luminescence based analysis; type: cell-based
[4] = target: T2, Protein cereblon/CREB-binding protein (Homo sapiens); experiment: PROTAC activity at CRBN/HiBiT-tagged CBP in human HAP1 cells assessed as induction of CBP degradation by measuring degradation rate at 10 nM measured over 24 hrs by luminescence based analysis; type: cell-based
[5] = target: Protein cereblon/Bromodomain-containing protein 4 (Homo sapiens) (UniProt O60885+Q96SW2); experiment: PROTAC activity at CRBN/HiBiT-tagged BRD4 in human HAP1 cells assessed as induction of BRD4 degradation measured over 24 hrs by luminescence based analysis; type: cell-based
Chain of Protein cereblon/Bromodomain-containing protein 4 (Homo sapiens) (Q96SW2 whole entry, looked up, other chains not shown): as the sequence (Q96SW2 whole entry partner) above

[6] = target: T1, Protein cereblon/Histone acetyltransferase p300 (Homo sapiens); experiment: PROTAC activity at CRBN/HiBiT-tagged p300 in human HAP1 cells assessed as induction of p300 degradation by measuring maximal efficacy at 0.1 nM measured over 24 hrs by luminescence based analysis relative to control; type: cell-based
[7] = target: T1, Protein cereblon/Histone acetyltransferase p300 (Homo sapiens); experiment: PROTAC activity at CRBN/HiBiT-tagged p300 in human HAP1 cells assessed as induction of p300 degradation by measuring degradation rate at 10 nM measured over 24 hrs by luminescence based analysis; type: cell-based
[8] = target: T2, Protein cereblon/CREB-binding protein (Homo sapiens); experiment: PROTAC activity at CRBN/HiBiT-tagged CBP in human HAP1 cells assessed as total cumulative degradation by measuring AUC at 1 nM measured over 24 hrs by luminescence based analysis; type: cell-based
[9] = target: T2, Protein cereblon/CREB-binding protein (Homo sapiens); experiment: PROTAC activity at CRBN/HiBiT-tagged CBP in human HAP1 cells assessed as induction of CBP degradation by measuring maximal efficacy at 1000 nM measured over 24 hrs by luminescence based analysis relative to control; type: cell-based
[10] = target: T1, Protein cereblon/Histone acetyltransferase p300 (Homo sapiens); experiment: PROTAC activity at CRBN/HiBiT-tagged p300 in human HAP1 cells assessed as induction of p300 degradation by measuring maximal efficacy at 1000 nM measured over 24 hrs by luminescence based analysis relative to control; type: cell-based
[11] = target: T2, Protein cereblon/CREB-binding protein (Homo sapiens); experiment: PROTAC activity at CRBN/HiBiT-tagged CBP in human HAP1 cells assessed as total cumulative degradation by measuring AUC at 10 nM measured over 24 hrs by luminescence based analysis; type: cell-based
[12] = target: T1, Protein cereblon/Histone acetyltransferase p300 (Homo sapiens); experiment: PROTAC activity at CRBN/HiBiT-tagged p300 in human HAP1 cells assessed as induction of p300 degradation by measuring degradation rate at 100 nM measured over 24 hrs by luminescence based analysis; type: cell-based
[13] = target: T2, Protein cereblon/CREB-binding protein (Homo sapiens); experiment: PROTAC activity at CRBN/HiBiT-tagged CBP in human HAP1 cells assessed as induction of CBP degradation by measuring maximal efficacy at 100 nM measured over 24 hrs by luminescence based analysis relative to control; type: cell-based
[14] = target: T2, Protein cereblon/CREB-binding protein (Homo sapiens); experiment: PROTAC activity at CRBN/HiBiT-tagged CBP in human HAP1 cells assessed as total cumulative degradation by measuring AUC at 1000 nM measured over 24 hrs by luminescence based analysis; type: cell-based
[15] = target: T1, Protein cereblon/Histone acetyltransferase p300 (Homo sapiens); experiment: PROTAC activity at CRBN/HiBiT-tagged p300 in human HAP1 cells assessed as total cumulative degradation by measuring AUC at 100 nM measured over 24 hrs by luminescence based analysis; type: cell-based
[16] = target: T2, Protein cereblon/CREB-binding protein (Homo sapiens); experiment: PROTAC activity at CRBN/HiBiT-tagged CBP in human HAP1 cells assessed as total cumulative degradation by measuring AUC at 100 nM measured over 24 hrs by luminescence based analysis; type: cell-based
[17] = target: T1, Protein cereblon/Histone acetyltransferase p300 (Homo sapiens); experiment: PROTAC activity at CRBN/HiBiT-tagged p300 in human HAP1 cells assessed as induction of p300 degradation by measuring maximal efficacy at 10 nM measured over 24 hrs by luminescence based analysis relative to control; type: cell-based
[18] = target: T1, Protein cereblon/Histone acetyltransferase p300 (Homo sapiens); experiment: PROTAC activity at CRBN/HiBiT-tagged p300 in human HAP1 cells assessed as total cumulative degradation by measuring AUC at 0.01 nM measured over 24 hrs by luminescence based analysis; type: cell-based
[19] = target: T2, Protein cereblon/CREB-binding protein (Homo sapiens); experiment: PROTAC activity at CRBN/HiBiT-tagged CBP in human HAP1 cells assessed as total cumulative degradation by measuring AUC at 0.1 nM measured over 24 hrs by luminescence based analysis; type: cell-based
[20] = target: T1, Protein cereblon/Histone acetyltransferase p300 (Homo sapiens); experiment: PROTAC activity at CRBN/HiBiT-tagged p300 in human HAP1 cells assessed as total cumulative degradation by measuring AUC at 10 nM measured over 24 hrs by luminescence based analysis; type: cell-based
[21] = target: T1, Protein cereblon/Histone acetyltransferase p300 (Homo sapiens); experiment: PROTAC activity at CRBN/HiBiT-tagged p300 in human HAP1 cells assessed as induction of p300 degradation by measuring degradation rate at 0.1 nM measured over 24 hrs by luminescence based analysis; type: cell-based
[22] = target: T1, Protein cereblon/Histone acetyltransferase p300 (Homo sapiens); experiment: PROTAC activity at CRBN/HiBiT-tagged p300 in human HAP1 cells assessed as total cumulative degradation by measuring AUC at 1000 nM measured over 24 hrs by luminescence based analysis; type: cell-based
[23] = target: T1, Protein cereblon/Histone acetyltransferase p300 (Homo sapiens); experiment: PROTAC activity at CRBN/HiBiT-tagged p300 in human HAP1 cells assessed as induction of p300 degradation by measuring maximal efficacy at 100 nM measured over 24 hrs by luminescence based analysis relative to control; type: cell-based
[24] = target: T2, Protein cereblon/CREB-binding protein (Homo sapiens); experiment: PROTAC activity at CRBN/HiBiT-tagged CBP in human HAP1 cells assessed as induction of CBP degradation by measuring degradation rate at 1000 nM measured over 24 hrs by luminescence based analysis; type: cell-based
[25] = target: T2, Protein cereblon/CREB-binding protein (Homo sapiens); experiment: PROTAC activity at CRBN/HiBiT-tagged CBP in human HAP1 cells assessed as induction of CBP degradation by measuring degradation rate at 100 nM measured over 24 hrs by luminescence based analysis; type: cell-based
[26] = target: T2, Protein cereblon/CREB-binding protein (Homo sapiens); experiment: PROTAC activity at CRBN/HiBiT-tagged CBP in human HAP1 cells assessed as induction of CBP degradation by measuring maximal efficacy at 10 nM measured over 24 hrs by luminescence based analysis relative to control; type: cell-based
[27] = target: T2, Protein cereblon/CREB-binding protein (Homo sapiens); experiment: PROTAC activity at CRBN/HiBiT-tagged CBP in human HAP1 cells assessed as induction of CBP degradation by measuring degradation rate at 0.1 nM measured over 24 hrs by luminescence based analysis; type: cell-based
[28] = target: T1, Protein cereblon/Histone acetyltransferase p300 (Homo sapiens); experiment: PROTAC activity at CRBN/HiBiT-tagged p300 in human HAP1 cells assessed as induction of p300 degradation by measuring degradation rate at 1000 nM measured over 24 hrs by luminescence based analysis; type: cell-based
[29] = target: T2, Protein cereblon/CREB-binding protein (Homo sapiens); experiment: PROTAC activity at CRBN/HiBiT-tagged CBP in human HAP1 cells assessed as induction of CBP degradation by measuring degradation rate at 1 nM measured over 24 hrs by luminescence based analysis; type: cell-based
[30] = target: T2, Protein cereblon/CREB-binding protein (Homo sapiens); experiment: Binding affinity to recombinant CRBN/CBP bromodomain (unknown origin) assessed as ternary complex formation at 10 to 100 nM by Alphascreen-based proximity assay; type: protein assay; settings: dose 10-100 nM
[31] = target: T2, Protein cereblon/CREB-binding protein (Homo sapiens); experiment: PROTAC activity at CRBN/HiBiT-tagged CBP in human HAP1 cells assessed as induction of CBP degradation by measuring maximal efficacy at 0.1 nM measured over 24 hrs by luminescence based analysis relative to control; type: cell-based
[32] = target: T1, Protein cereblon/Histone acetyltransferase p300 (Homo sapiens); experiment: PROTAC activity at CRBN/HiBiT-tagged p300 in human HAP1 cells assessed as induction of p300 degradation by measuring degradation rate at 1 nM measured over 24 hrs by luminescence based analysis; type: cell-based
[33] = target: T1, Protein cereblon/Histone acetyltransferase p300 (Homo sapiens); experiment: PROTAC activity at CRBN/HiBiT-tagged p300 in human HAP1 cells assessed as total cumulative degradation by measuring AUC at 1 nM measured over 24 hrs by luminescence based analysis; type: cell-based
[34] = target: T1, Protein cereblon/Histone acetyltransferase p300 (Homo sapiens); experiment: PROTAC activity at CRBN/HiBiT-tagged p300 in human HAP1 cells assessed as induction of p300 degradation by measuring maximal efficacy at 1 nM measured over 24 hrs by luminescence based analysis relative to control; type: cell-based
[35] = target: T2, Protein cereblon/CREB-binding protein (Homo sapiens); experiment: PROTAC activity at CRBN/HiBiT-tagged CBP in human HAP1 cells assessed as induction of CBP degradation by measuring maximal efficacy at 1 nM measured over 24 hrs by luminescence based analysis relative to control; type: cell-based
[36] = target: T2, Protein cereblon/CREB-binding protein (Homo sapiens); experiment: Binding affinity to recombinant CRBN/CBP bromodomain (unknown origin) assessed as ternary complex formation at 1 to 1000 nM by Alphascreen-based proximity assay; type: protein assay; settings: dose 1-1000 nM
[37] = target: T1, Protein cereblon/Histone acetyltransferase p300 (Homo sapiens); experiment: Binding affinity to recombinant CRBN/p300 bromodomain (unknown origin) assessed as ternary complex formation at 1 to 1000 nM by Alphascreen-based proximity assay; type: protein assay; settings: dose 1-1000 nM

| Structure (SMILES) | AUC [2] | AUC [3] | Activity [4] | Activity [5] | Activity [7] | AUC [8] | Emax [9] | Emax [10] | AUC [11] | Activity [12] | Emax [13] | AUC [14] | AUC [15] | AUC [16] | Emax [17] | AUC [18] | AUC [19] | AUC [20] | AUC [22] | Emax [23] | also measured |
| --- | --- | --- | --- | --- | --- | --- | --- | --- | --- | --- | --- | --- | --- | --- | --- | --- | --- | --- | --- | --- | --- |
| CNC(=O)N1CCc2c(c(N3CCCc4cc(-c5cnn(C)c5)c(C(F)(F)F)cc43)nn2C2CCN(C(=O)CCOCCOCCOCCOCCNc3ccc4c(c3)C(=O)N(C3CCC(=O)NC3=O)C4=O)CC2)C1 (stereo not drawn) | 24.1 | 23.2 | 1.3 h⁻¹ | inactive | 1.3 h⁻¹ | 10.7 | 80% | 84% | 4.4 | 1 h⁻¹ | 88% | 7.4 | 3.9 | 4 | 82% | 26.5 | 20.8 | 5.2 | 6 | 88% | Activity [1]: Active; Emax [6]: 17%; Activity [21]: 1 10^-4/hr; Activity [24]: 0.32 h⁻¹; Activity [25]: 0.83 h⁻¹; Emax [26]: 85%; Activity [27]: 0.21 h⁻¹; Activity [28]: 0.42 h⁻¹; Activity [29]: 0.63 h⁻¹; Activity [30]: Active; Emax [31]: 20%; Activity [32]: 0.41 h⁻¹; AUC [33]: 12.3; Emax [34]: 56%; Emax [35]: 61% |
| CNC(=O)N1CCc2c(c(N3CCCc4cc(-c5cnn(C)c5)c(C(F)F)cc43)nn2C2CCN(C(=O)CCOCCNc3ccc4c(c3)C(=O)N(C3CCC(=O)NC3=O)C4=O)CC2)C1 (stereo not drawn) | 25.6 | 24.7 | 0.31 h⁻¹ | inactive | 0.35 h⁻¹ | 15.6 | 64% | 58% | 10.3 | 0.29 h⁻¹ | 65% | 19.5 | 9.4 | 12.1 | 71% | 27.3 | 23.7 | 9.2 | 16.5 | 73% | Activity [1]: Active; Activity [24]: 0.36 h⁻¹; Activity [25]: 0.19 h⁻¹; Emax [26]: 68%; Activity [27]: 1.2 10^-4/hr; Activity [28]: 0.09 h⁻¹; Activity [29]: 0.26 h⁻¹; Activity [30]: Active; Emax [31]: 11%; Activity [32]: 0.2 h⁻¹; AUC [33]: 16.1; Emax [34]: 44%; Emax [35]: 44% |
| CNC(=O)N1CCc2c(c(N3CCCc4cc(-c5cnn(C)c5)c(C(F)F)cc43)nn2C2CCN(C(=O)CCOCCOCCOCCOCCNc3ccc4c(c3)C(=O)N(C3CCC(=O)NC3=O)C4=O)CC2)C1 (stereo not drawn) | 24.7 | 21.7 | 1.1 h⁻¹ | inactive | 1 h⁻¹ | 10.4 | 83% | 86% | 4.4 | 1 h⁻¹ | 89% | 6.4 | 3.7 | 3.9 | 83% | 26.1 | 20.7 | 5.1 | 4.8 | 88% | Activity [36]: Active; Emax [6]: 27%; Activity [21]: 0.02 h⁻¹; Activity [24]: 0.4 h⁻¹; Activity [25]: 0.81 h⁻¹; Emax [26]: 86%; Activity [27]: 0.12 h⁻¹; Activity [28]: 0.57 h⁻¹; Activity [37]: Active; Activity [29]: 0.54 h⁻¹; Emax [31]: 25%; Activity [32]: 0.37 h⁻¹; AUC [33]: 12.2; Emax [34]: 57%; Emax [35]: 63% |
